pIC50: −log10 of the molar value. Like-named read-outs stand apart in the source and are kept apart here.
What was measured:
AP-1060 (ETV6-NTRK3) = assay: Cell viability assay; conditions: read-out: IC50 in cell proliferation assay
134 cancer cell lines = assay: Cell viability assay (ATPlite, 72 hours), IC50 on cancer cell line panel

- pIC50 (134 cancer cell lines; HEC-6, read-out: IC50 in cell proliferation assay, HEC-6 cell line (EGFR p.A289V)): 5.49
- pIC50 (134 cancer cell lines; Homo sapiens, 769-P, read-out: IC50 in cell proliferation assay, cell line 769-P): 5.55
- pIC50 (134 cancer cell lines; Homo sapiens, 786-0, read-out: IC50 in cell proliferation assay, cell line 786-O): 5.48
- pIC50 (134 cancer cell lines; Homo sapiens, A 172, read-out: IC50 in cell proliferation assay, cell line A-172): 5.40
- pIC50 (134 cancer cell lines; Homo sapiens, A204, read-out: IC50 in cell proliferation assay, cell line A-204): 5.57
- pIC50 (134 cancer cell lines; Homo sapiens, A498, read-out: IC50 in cell proliferation assay, cell line A-498): 5.38
- pIC50 (134 cancer cell lines; Homo sapiens, A549, read-out: IC50 in cell proliferation assay, cell line A-549): 5.34
- pIC50 (134 cancer cell lines; Homo sapiens, A704, read-out: IC50 in cell proliferation assay, cell line A-704): 5.21
- pIC50 (134 cancer cell lines; Homo sapiens, A-375, read-out: IC50 in cell proliferation assay, cell line A-375 (BRAF p.V600E)): 5.79
- pIC50 (134 cancer cell lines; Homo sapiens, A-427, read-out: IC50 in cell proliferation assay, cell line A-427): 5.84
- pIC50 (134 cancer cell lines; Homo sapiens, ACHN, read-out: IC50 in cell proliferation assay, cell line ACHN): 5.32
- pIC50 (134 cancer cell lines; Homo sapiens, AN3-CA, read-out: IC50 in cell proliferation assay, cell line AN3-CA (FGFR2 p.N549K)): 5.38
- pIC50 (134 cancer cell lines; Homo sapiens, ASPC1, read-out: IC50 in cell proliferation assay, cell line AsPC-1): 5.87
- pIC50 (134 cancer cell lines; Homo sapiens, AU565, read-out: IC50 in cell proliferation assay, cell line AU565 (ERBB2 amplification)): 5.49
- pIC50 (134 cancer cell lines; Homo sapiens, BT-20, read-out: IC50 in cell proliferation assay, cell line BT-20): 5.22
- pIC50 (134 cancer cell lines; Homo sapiens, BT-474, read-out: IC50 in cell proliferation assay, cell line BT-474 (ERBB2 amplification)): 5.49
- pIC50 (134 cancer cell lines; Homo sapiens, BT-549, read-out: IC50 in cell proliferation assay, cell line BT-549): 5.42
- pIC50 (134 cancer cell lines; Homo sapiens, BXPC-3, read-out: IC50 in cell proliferation assay, cell line BxPC-3): 5.77
- pIC50 (134 cancer cell lines; Homo sapiens, C-33-A, read-out: IC50 in cell proliferation assay, cell line C-33 A): 5.35
- pIC50 (134 cancer cell lines; Homo sapiens, CAL-27, read-out: IC50 in cell proliferation assay, cell line CAL-27): 5.52
- pIC50 (134 cancer cell lines; Homo sapiens, CCF-STTG1, read-out: IC50 in cell proliferation assay, cell line CCF-STTG1): 5.35
- pIC50 (134 cancer cell lines; Homo sapiens, CCRF-CEM, read-out: IC50 in cell proliferation assay, cell line CCRF-CEM): 5.41
- pIC50 (134 cancer cell lines; Homo sapiens, COLO 205, read-out: IC50 in cell proliferation assay, cell line COLO 205 (BRAF p.V600E)): 5.72
- pIC50 (134 cancer cell lines; Homo sapiens, COLO-829, read-out: IC50 in cell proliferation assay, cell line COLO 829 (BRAF p.V600E)): 5.49
- pIC50 (134 cancer cell lines; Homo sapiens, DLD-1, read-out: IC50 in cell proliferation assay, cell line DLD-1): 5.36
- pIC50 (134 cancer cell lines; Homo sapiens, DU-4475, read-out: IC50 in cell proliferation assay, cell line DU4475 (BRAF p.V600E)): 5.66
- pIC50 (134 cancer cell lines; Homo sapiens, Daoy, read-out: IC50 in cell proliferation assay, cell line Daoy): 5.31
- pIC50 (134 cancer cell lines; Homo sapiens, DoTc2-4510, read-out: IC50 in cell proliferation assay, cell line DoTc2 4510): 5.92
- pIC50 (134 cancer cell lines; Homo sapiens, EOL1, read-out: IC50 in cell proliferation assay, cell line EoL-1 (FIP1L1-PDGFRA)): 6.25
- pIC50 (134 cancer cell lines; Homo sapiens, FaDu, read-out: IC50 in cell proliferation assay, cell line FaDu): 5.49
- pIC50 (134 cancer cell lines; Homo sapiens, G-361, read-out: IC50 in cell proliferation assay, cell line G-361 (BRAF p.V600E)): 5.82
- pIC50 (134 cancer cell lines; Homo sapiens, HCC827, read-out: IC50 in cell proliferation assay, cell line HCC827 (EGFR exon19del)): 5.43
- pIC50 (134 cancer cell lines; Homo sapiens, HCC4006, read-out: IC50 in cell proliferation assay, cell line HCC4006 (EGFR exon19del)): 5.56
- pIC50 (134 cancer cell lines; Homo sapiens, HCT-15, read-out: IC50 in cell proliferation assay, cell line HCT 15): 5.42
- pIC50 (134 cancer cell lines; Homo sapiens, HCT-116, read-out: IC50 in cell proliferation assay, cell line HCT 116): 5.57
- pIC50 (134 cancer cell lines; Homo sapiens, HEC-1, read-out: IC50 in cell proliferation assay, HEC-1 cell line): 5.57
- pIC50 (134 cancer cell lines; Homo sapiens, HEC-1B, read-out: IC50 in cell proliferation assay, HEC-1-B cell line (EGFR p.A864V)): 5.71
- pIC50 (134 cancer cell lines; Homo sapiens, HL-60, read-out: IC50 in cell proliferation assay, HL-60 cell line): 6.02
- pIC50 (134 cancer cell lines; Homo sapiens, HT, read-out: IC50 in cell proliferation assay, HT cell line): 5.32
- pIC50 (134 cancer cell lines; Homo sapiens, HT-1080, read-out: IC50 in cell proliferation assay, HT-1080 cell line): 5.70
- pIC50 (134 cancer cell lines; Homo sapiens, Hs746T, read-out: IC50 in cell proliferation assay, Hs 746.T cell line (MET exon14skip + amplification)): 5.48
- pIC50 (134 cancer cell lines; Homo sapiens, Hs-578T, read-out: IC50 in cell proliferation assay, Hs 578T cell line): 5.39
- pIC50 (134 cancer cell lines; Homo sapiens, HuTu80, read-out: IC50 in cell proliferation assay, HuTu 80 cell line): 5.78
- pIC50 (134 cancer cell lines; Homo sapiens, J82, read-out: IC50 in cell proliferation assay, J82 cell line): 5.35
- pIC50 (134 cancer cell lines; Homo sapiens, Jurkat E6.1, read-out: IC50 in cell proliferation assay, Jurkat E6.1 cell line): 5.39
- pIC50 (134 cancer cell lines; Homo sapiens, K562, read-out: IC50 in cell proliferation assay, K-562 cell line): 5.40
- pIC50 (134 cancer cell lines; Homo sapiens, KATO III, read-out: IC50 in cell proliferation assay, KATO III cell line (FGFR2 amplification)): 5.63
- pIC50 (134 cancer cell lines; Homo sapiens, KG-1, read-out: IC50 in cell proliferation assay, KG-1 cell line (FGFR1OP2-FGFR1)): 5.41
- pIC50 (134 cancer cell lines; Homo sapiens, KLE, read-out: IC50 in cell proliferation assay, KLE cell line): 5.45
- pIC50 (134 cancer cell lines; Homo sapiens, KMS-11, read-out: IC50 in cell proliferation assay, KMS-11 cell line (FGFR3 p.Y373C)): 5.88
- pIC50 (134 cancer cell lines; Homo sapiens, KU812, read-out: IC50 in cell proliferation assay, Ku812 cell line): 5.72
- pIC50 (134 cancer cell lines; Homo sapiens, Kasumi 1, read-out: IC50 in cell proliferation assay, Kasumi-1 cell line (KIT p.N822K)): 5.98
- pIC50 (134 cancer cell lines; Homo sapiens, LC-2-ad, read-out: IC50 in cell proliferation assay, LC-2/ad cell line (CCDC6-RET)): 5.69
- pIC50 (134 cancer cell lines; Homo sapiens, LNCaP-Clone-FGC, read-out: IC50 in cell proliferation assay, LNCaP clone FGC cell line): 5.43
- pIC50 (134 cancer cell lines; Homo sapiens, LS174T, read-out: IC50 in cell proliferation assay, LS174T cell line): 5.70
- pIC50 (134 cancer cell lines; Homo sapiens, LS-411N, read-out: IC50 in cell proliferation assay, LS411N cell line (BRAF p.V600E)): 5.71
- pIC50 (134 cancer cell lines; Homo sapiens, LoVo, read-out: IC50 in cell proliferation assay, LoVo cell line): 5.46
- pIC50 (134 cancer cell lines; Homo sapiens, MCF7, read-out: IC50 in cell proliferation assay, MCF-7 cell line): 5.56
- pIC50 (134 cancer cell lines; Homo sapiens, MDA-MB-231, read-out: IC50 in cell proliferation assay, MDA-MB-231 cell line): 6.11
- pIC50 (134 cancer cell lines; Homo sapiens, MDA-MB-453, read-out: IC50 in cell proliferation assay, MDA-MB-453 cell line): 6.03
- pIC50 (134 cancer cell lines; Homo sapiens, MDA-MB-468, read-out: IC50 in cell proliferation assay, MDA-MB-468 cell line): 5.35
- pIC50 (134 cancer cell lines; Homo sapiens, MG-63, read-out: IC50 in cell proliferation assay, MG-63 cell line): 5.52
- pIC50 (134 cancer cell lines; Homo sapiens, MIA PaCa-2, read-out: IC50 in cell proliferation assay, MIA PaCa-2 cell line): 5.66
- pIC50 (134 cancer cell lines; Homo sapiens, MKN-45, read-out: IC50 in cell proliferation assay, MKN45 cell line (MET amplification)): 5.45
- pIC50 (134 cancer cell lines; Homo sapiens, MOLM-13, read-out: IC50 in cell proliferation assay, MOLM-13 cell line (FLT3 ITD)): 6.00
Compound: Cc1cc(Nc2ncc(Cl)c(Nc3ccccc3S(=O)(=O)C(C)C)n2)c(OC(C)C)cc1C1CCNCC1 [ceritinib]
- pIC50 (AP-1060 (ETV6-NTRK3)): 5.75
